Entries after “also recorded” stand apart in the source; their conditions may differ. Read-outs that look alike come from different tables or passages of the source.
Key:
[1] = test system: dorsal root ganglion (DRG) neurons; type: cell-based, mouse
mice [2] = assay: Warm-water (55° C.) tail-flick assay, antinociception; type: in vivo, mouse
mice [3] = assay: Acute physical dependence assay: naloxone-precipitated withdrawal jumping; type: in vivo, mouse; conditions: for effect on naloxone-precipitated withdrawal jumping: co-treatment 4 hours with 100 mg/kg morphine s.c. plus low dose antagonist
mice [4] = conditions: morphine 20-50 mg/kg s.c. twice daily 4 days alone or + naltrexone 10 μg/kg s.c.; n=30
mice [5] = conditions: at 30 minutes; n=10
[6] = test system: excitatory opioid receptors on DRG neurons; type: cell-based, mouse
DRG neurons = type: cell-based, mouse
human volunteers = conditions: yohimbine 0.1 mg/kg IV; 100 mg tramadol orally; cited from earlier work

## CN1CC[C@]23c4c5ccc(O)c4O[C@H]2[C@@H](O)C=C[C@H]3[C@H]1C5 [morphine]
[1]
  APD during application: prolonged
  alteration of the APD of DRG neurons: prolong the APD
Mice [2]; 100 mg/kg morphine alone or + 10 μg/kg naltrexone, cutoff value
  peak tail-flick latencies: 10 s
Mice [3]; 100 mg/kg morphine s.c. alone or + naltrexone 10 μg/kg, naloxone 10 mg/kg i.p. 3-4 h later, n=30
  mice showing naloxone-precipitated jumping: About 67%
Mice [4]
  mice showing naloxone-precipitated jumping: About 60%
Mice [5]
  antinociception after acute 1 mg/kg morphine, 1 day after drug withdrawal: 3%±2%

## C=C1CC[C@@]2(O)[C@H]3Cc4ccc(O)c5c4[C@@]2(CCN3CC2CC2)[C@H]1O5 [nalmefene]
Mice [2]; 1 ng/kg nalmefene
  enhancement of morphine antinociceptive potency compared with naltrexone: as effective as 10 ng/kg naltrexone
Mice [2]; 3 mg/kg morphine + 1-100 ng/kg nalmefene i.p., 10 mice
  effect on morphine's antinociceptive potency: enhances morphine's antinociceptive potency
Mice [3]; 1 μg/kg nalmefene, n=10
  attenuation of morphine dependence liability compared with naltrexone: may even be more effective than naltrexone
Mice [3]
  effect on naloxone-precipitated withdrawal jumping: attenuates naloxone-precipitated withdrawal-jumping

## O=C1CC[C@@]2(O)[C@H]3Cc4ccc(O)c5c4[C@@]2(CCN3CC2CC2)[C@H]1O5 [naltrexone]
[6]
  blockade of excitatory APD prolongation by bimodally-acting opioid agonists: remarkably effective in blocking excitatory APD-prolonging effects
  effect on morphine's APD effects: blocks both inhibitory as well as excitatory effects of morphine
  selective antagonism of excitatory APD-prolonging effects at excitatory opioid receptors: act selectively as antagonists; also recorded: selectively blocked
DRG neurons
  excitatory APD prolongation (supersensitivity) after chronic co-treatment: did not evoke the usual excitatory APD prolongation
  tolerance to inhibitory effects of opioids after chronic co-treatment: no evidence of tolerance
Mice [2]; 10 ng/kg i.p.
  analgesic effects of antagonist alone: did not elicit analgesic effects
Mice [2]; 0.1 μg/kg
  analgesic effects of antagonist alone: did not elicit analgesic effects
Mice [3]
  effect on naloxone-precipitated withdrawal jumping: attenuates naloxone-precipitated withdrawal-jumping

## COC(=O)[C@@H]1[C@H]2C[C@H]3c4[nH]c5ccccc5c4CCN3C[C@@H]2CC[C@@H]1O [yohimbine]
Human volunteers
  reduction of tramadol-induced analgesia: ≥ 89%

Reference: patent US6765010B2, “Compositions and methods for enhancing analgesic potency of tramadol and attenuating its adverse side effects” (Pain Therapeutics, Inc., priority 1999, dated 2004)
